Laboratory results: paper PMC8550792, “Evolution of kinase polypharmacology across HSP90 drug discovery” (Cell Chemical Biology, 2021)

Key:
LTK = test system: LTK; set-up: method as in ChEMBL23 (accessed: 23/08/2018); details: average of reported values; ref ChEMBL23 (accessed: 23/08/2018); cited from earlier work
PIM1 = test system: PIM1; set-up: method as in ChEMBL23 (accessed: 23/08/2018); details: average of reported values; ref ChEMBL23 (accessed: 23/08/2018); cited from earlier work
PEAK1 = target: T1, PEAK1 (Homo sapiens, UniProt Q9H792); test: HotSpot in vitro kinase radiometric assay; type: biochemical
T1 construct: purchased Reaction Biology (HotSpot contract assay)

TRKC = target: T2, TRKC (Homo sapiens, UniProt Q16288); test: HotSpot in vitro kinase radiometric assay; type: biochemical
T2 construct: purchased Reaction Biology (HotSpot contract assay)

PASK = target: T3, PASK (Homo sapiens, UniProt Q96RG2); test: HotSpot in vitro kinase radiometric assay; type: biochemical
T3 construct: purchased Reaction Biology (HotSpot contract assay)
Method in brief: (§1)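 Product formation was detected via radiolabelled phosphate transferred from ɣ-ATP (32P or 33P) and captured on filter paper after spotting. The kinase reactions included substrate, cofactors and compound, with no antibodies or coupling enzymes involved.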

TRKA = target: T4, TRKA (Homo sapiens, UniProt P04629); test: HotSpot in vitro kinase radiometric assay; type: biochemical
T4 construct: purchased Reaction Biology (HotSpot contract assay)
Method in brief: as §1

ABL2/ARG = target: T5, ABL2/ARG (Homo sapiens, UniProt P42684); test: HotSpot in vitro kinase radiometric assay; type: biochemical
T5 construct: purchased Reaction Biology (HotSpot contract assay)

FYN = target: T6, FYN (Homo sapiens, UniProt P06241); test: HotSpot in vitro kinase radiometric assay; type: biochemical
T6 construct: purchased Reaction Biology (HotSpot contract assay)

YES/YES1 = target: T7, YES/YES1 (Homo sapiens, UniProt P07947); test: HotSpot in vitro kinase radiometric assay; type: biochemical
T7 construct: purchased Reaction Biology (HotSpot contract assay)

MET = test system: MET; set-up: method as in ChEMBL23 (accessed: 23/08/2018); details: average of reported values; ref ChEMBL23 (accessed: 23/08/2018); cited from earlier work
DDR1 = DDR1 (Homo sapiens, UniProt Q08345); test: HotSpot in vitro kinase radiometric assay; type: biochemical; set-up: purchased Reaction Biology (HotSpot contract assay)
LYN B = target: T8, LYN B (Homo sapiens, UniProt P07948); test: HotSpot in vitro kinase radiometric assay; type: biochemical
T8 construct: purchased Reaction Biology (HotSpot contract assay)
Method in brief: as §1

PDK4/PDKH4 = target: T9, PDK4/PDKH4 (Homo sapiens, UniProt Q16654); test: HotSpot in vitro kinase radiometric assay; type: biochemical
T9 construct: purchased Reaction Biology (HotSpot contract assay)
Method in brief: as §1

BLK = target: T10, BLK (Homo sapiens, UniProt P51451); test: HotSpot in vitro kinase radiometric assay; type: biochemical
T10 construct: purchased Reaction Biology (HotSpot contract assay)
Method in brief: as §1

c-Src = target: T11, c-Src (Homo sapiens, UniProt P12931); test: HotSpot in vitro kinase radiometric assay; type: biochemical
T11 construct: purchased Reaction Biology (HotSpot contract assay)
Method in brief: as §1

PDK2/PDHK2 = target: T12, PDK2/PDHK2 (Homo sapiens, UniProt Q15119); test: HotSpot in vitro kinase radiometric assay; type: biochemical
T12 construct: purchased Reaction Biology (HotSpot contract assay)
Method in brief: as §1

FGR = target: T13, FGR (Homo sapiens, UniProt P09769); test: HotSpot in vitro kinase radiometric assay; type: biochemical
T13 construct: purchased Reaction Biology (HotSpot contract assay)

HSP90AB1 = test system: HSP90AB1; set-up: method as in ChEMBL23 (accessed: 23/08/2018); details: average of reported values; ref ChEMBL23 (accessed: 23/08/2018); cited from earlier work
LCK = target: T14, LCK (Homo sapiens, UniProt P06239); test: HotSpot in vitro kinase radiometric assay; type: biochemical
T14 construct: purchased Reaction Biology (HotSpot contract assay)

ABL1 = ABL1 (Homo sapiens, UniProt P00519); test: HotSpot in vitro kinase radiometric assay; type: biochemical; set-up: purchased Reaction Biology (HotSpot contract assay)

T1 sequence (Q9H792 whole entry): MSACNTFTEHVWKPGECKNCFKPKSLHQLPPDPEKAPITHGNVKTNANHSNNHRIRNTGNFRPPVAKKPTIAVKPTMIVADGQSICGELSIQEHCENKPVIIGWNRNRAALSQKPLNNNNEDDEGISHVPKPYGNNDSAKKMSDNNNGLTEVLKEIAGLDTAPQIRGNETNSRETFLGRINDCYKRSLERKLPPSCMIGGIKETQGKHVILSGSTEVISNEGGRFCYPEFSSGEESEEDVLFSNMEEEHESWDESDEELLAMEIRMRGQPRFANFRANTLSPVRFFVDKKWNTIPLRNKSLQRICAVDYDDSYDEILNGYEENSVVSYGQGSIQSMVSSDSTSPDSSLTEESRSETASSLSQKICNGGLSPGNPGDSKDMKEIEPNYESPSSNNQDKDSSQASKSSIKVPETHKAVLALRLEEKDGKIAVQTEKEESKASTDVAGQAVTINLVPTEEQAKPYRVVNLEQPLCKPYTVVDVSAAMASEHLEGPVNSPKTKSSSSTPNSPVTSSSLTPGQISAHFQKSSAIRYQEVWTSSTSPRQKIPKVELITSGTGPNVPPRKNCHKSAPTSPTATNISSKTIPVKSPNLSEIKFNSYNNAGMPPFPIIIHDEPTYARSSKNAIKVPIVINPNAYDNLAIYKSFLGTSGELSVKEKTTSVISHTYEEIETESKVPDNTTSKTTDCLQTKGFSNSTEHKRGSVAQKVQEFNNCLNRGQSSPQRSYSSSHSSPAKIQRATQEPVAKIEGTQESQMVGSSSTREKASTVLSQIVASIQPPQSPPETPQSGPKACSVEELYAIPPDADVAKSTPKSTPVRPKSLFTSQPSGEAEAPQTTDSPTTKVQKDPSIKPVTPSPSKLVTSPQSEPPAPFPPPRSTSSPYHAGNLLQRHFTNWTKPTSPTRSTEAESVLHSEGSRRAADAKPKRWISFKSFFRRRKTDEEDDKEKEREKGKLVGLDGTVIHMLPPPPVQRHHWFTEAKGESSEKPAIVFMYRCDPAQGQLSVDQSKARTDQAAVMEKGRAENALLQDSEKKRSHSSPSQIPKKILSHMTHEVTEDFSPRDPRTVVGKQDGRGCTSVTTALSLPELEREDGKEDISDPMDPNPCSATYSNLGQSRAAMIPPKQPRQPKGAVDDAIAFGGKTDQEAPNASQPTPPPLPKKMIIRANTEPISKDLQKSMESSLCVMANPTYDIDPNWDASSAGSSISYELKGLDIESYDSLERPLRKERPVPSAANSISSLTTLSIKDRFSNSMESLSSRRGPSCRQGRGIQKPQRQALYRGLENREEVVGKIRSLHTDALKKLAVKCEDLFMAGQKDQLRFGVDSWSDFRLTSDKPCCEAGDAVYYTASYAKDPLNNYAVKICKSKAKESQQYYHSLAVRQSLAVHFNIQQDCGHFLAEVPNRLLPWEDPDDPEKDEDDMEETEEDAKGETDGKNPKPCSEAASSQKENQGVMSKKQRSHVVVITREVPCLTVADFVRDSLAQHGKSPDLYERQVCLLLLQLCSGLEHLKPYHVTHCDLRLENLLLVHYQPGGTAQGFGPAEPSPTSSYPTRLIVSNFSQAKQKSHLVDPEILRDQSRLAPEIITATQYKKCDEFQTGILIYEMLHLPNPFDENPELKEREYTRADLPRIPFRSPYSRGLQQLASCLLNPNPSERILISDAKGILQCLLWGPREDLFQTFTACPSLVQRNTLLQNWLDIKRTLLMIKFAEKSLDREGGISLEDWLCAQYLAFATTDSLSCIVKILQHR
T6 sequence (P06241 whole entry): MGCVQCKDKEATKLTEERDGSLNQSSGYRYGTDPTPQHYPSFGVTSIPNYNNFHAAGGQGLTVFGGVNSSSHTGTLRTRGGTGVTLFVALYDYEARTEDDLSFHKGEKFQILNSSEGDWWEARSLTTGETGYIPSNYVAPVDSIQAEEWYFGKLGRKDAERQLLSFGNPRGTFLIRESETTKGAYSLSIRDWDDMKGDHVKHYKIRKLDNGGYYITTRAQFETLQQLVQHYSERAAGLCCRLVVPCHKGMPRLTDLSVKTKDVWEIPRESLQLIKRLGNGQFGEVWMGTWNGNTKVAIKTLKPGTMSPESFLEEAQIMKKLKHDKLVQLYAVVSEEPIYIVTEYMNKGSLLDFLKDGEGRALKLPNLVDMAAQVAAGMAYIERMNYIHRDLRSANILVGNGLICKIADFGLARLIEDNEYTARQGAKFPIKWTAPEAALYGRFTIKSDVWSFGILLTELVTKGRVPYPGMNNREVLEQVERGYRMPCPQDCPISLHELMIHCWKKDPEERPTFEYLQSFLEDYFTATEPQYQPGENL
T2 sequence (Q16288 32-839): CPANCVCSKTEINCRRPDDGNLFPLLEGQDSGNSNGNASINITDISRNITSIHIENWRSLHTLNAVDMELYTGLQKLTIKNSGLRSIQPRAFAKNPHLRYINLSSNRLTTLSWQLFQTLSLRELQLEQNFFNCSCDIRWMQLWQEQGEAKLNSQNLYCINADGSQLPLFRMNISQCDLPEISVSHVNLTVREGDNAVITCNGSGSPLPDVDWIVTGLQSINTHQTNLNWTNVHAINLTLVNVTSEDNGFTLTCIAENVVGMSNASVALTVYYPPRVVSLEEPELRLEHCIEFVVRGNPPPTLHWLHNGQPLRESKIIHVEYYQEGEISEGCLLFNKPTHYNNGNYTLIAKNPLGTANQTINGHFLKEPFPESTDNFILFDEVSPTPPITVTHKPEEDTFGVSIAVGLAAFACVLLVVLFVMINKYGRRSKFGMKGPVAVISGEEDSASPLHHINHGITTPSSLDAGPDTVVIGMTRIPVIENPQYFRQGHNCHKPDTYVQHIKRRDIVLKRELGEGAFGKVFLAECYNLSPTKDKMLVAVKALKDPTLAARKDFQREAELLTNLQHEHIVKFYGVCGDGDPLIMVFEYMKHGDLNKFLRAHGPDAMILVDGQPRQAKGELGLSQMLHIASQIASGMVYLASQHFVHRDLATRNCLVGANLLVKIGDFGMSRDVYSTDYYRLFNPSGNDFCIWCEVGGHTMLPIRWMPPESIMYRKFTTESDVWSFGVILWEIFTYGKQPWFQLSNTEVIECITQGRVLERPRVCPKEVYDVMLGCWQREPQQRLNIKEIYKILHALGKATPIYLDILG
Chain of DDR1 (Q08345 19-913): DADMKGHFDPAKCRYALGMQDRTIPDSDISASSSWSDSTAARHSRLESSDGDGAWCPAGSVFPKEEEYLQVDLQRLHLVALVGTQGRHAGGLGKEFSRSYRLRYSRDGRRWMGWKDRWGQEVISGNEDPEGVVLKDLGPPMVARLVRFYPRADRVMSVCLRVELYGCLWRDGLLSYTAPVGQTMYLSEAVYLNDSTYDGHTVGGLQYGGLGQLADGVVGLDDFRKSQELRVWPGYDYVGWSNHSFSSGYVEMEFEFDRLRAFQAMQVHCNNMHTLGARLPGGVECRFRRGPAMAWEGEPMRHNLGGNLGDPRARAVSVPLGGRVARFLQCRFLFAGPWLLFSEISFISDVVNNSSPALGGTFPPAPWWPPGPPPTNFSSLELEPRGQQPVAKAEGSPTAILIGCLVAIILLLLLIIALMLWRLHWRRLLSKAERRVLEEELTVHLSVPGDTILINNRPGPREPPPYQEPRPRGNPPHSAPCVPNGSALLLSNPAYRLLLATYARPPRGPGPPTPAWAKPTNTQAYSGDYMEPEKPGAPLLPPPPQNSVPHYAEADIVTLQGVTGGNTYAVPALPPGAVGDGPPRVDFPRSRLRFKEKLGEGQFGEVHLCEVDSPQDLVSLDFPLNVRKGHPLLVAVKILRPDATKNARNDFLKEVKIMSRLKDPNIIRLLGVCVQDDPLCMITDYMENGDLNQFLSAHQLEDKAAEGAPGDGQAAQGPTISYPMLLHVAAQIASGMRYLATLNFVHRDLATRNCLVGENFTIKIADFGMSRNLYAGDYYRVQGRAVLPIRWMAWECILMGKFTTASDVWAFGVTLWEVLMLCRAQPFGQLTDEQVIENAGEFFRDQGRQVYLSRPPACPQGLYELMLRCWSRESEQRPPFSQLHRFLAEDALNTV
T13 sequence (P09769 whole entry): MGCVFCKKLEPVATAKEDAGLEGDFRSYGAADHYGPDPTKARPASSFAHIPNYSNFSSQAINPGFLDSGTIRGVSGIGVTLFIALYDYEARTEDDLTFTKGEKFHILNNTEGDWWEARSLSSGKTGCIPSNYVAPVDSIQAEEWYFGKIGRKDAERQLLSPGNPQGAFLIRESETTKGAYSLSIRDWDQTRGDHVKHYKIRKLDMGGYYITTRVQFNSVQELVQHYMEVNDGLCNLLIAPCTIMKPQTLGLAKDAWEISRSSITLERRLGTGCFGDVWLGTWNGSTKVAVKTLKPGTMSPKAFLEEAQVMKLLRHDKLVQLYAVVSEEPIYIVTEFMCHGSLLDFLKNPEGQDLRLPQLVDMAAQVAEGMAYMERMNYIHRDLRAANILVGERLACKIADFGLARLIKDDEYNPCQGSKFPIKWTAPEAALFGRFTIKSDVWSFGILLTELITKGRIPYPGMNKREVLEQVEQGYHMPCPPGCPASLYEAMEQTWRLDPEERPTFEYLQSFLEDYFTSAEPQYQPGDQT
T9 sequence (Q16654 whole entry): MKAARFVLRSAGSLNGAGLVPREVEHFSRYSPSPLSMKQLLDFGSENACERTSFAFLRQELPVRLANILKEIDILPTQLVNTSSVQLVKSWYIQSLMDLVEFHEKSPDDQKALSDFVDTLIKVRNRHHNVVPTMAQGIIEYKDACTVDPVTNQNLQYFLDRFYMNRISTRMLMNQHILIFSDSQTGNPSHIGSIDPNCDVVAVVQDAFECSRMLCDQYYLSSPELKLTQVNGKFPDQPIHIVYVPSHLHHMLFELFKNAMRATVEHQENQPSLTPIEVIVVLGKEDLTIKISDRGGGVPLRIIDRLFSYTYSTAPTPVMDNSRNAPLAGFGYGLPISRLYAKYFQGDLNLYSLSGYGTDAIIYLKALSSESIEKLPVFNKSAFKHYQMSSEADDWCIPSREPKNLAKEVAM

- % inhibition at 10 uM: PEAK1 (PEAK1; 10 μM, Fig 6C median ± standard deviation (n = 2)): 83 ± 1%
- remaining activity at 10 µM (PEAK1; PEAK1, 10uM, ATP 30 uM, Data 1, Data 2, read-out: % Enzyme Activity (relative to DMSO controls)): 16.4%
- inhibition at 10 µM (PEAK1; read-out: % inhibition at 10 uM: PEAK1, 10 μM, Fig 6C median ± standard deviation (n = 2)): > 70%
- remaining activity at 10 µM (TRKC; TRKC, 10uM, ATP 100 uM, Data 1, Data 2, read-out: % Enzyme Activity (relative to DMSO controls)): 96.1%
- inhibition at 10 µM (TRKC; read-out: % inhibition at 10 uM: TRKC, 10 μM, Fig 6C median ± standard deviation (n = 2)): 5 ± 1%
- remaining activity at 10 µM (PASK; PASK, 10uM, ATP 50 uM, Data 1, Data 2, read-out: % Enzyme Activity (relative to DMSO controls)): 101%
- inhibition at 10 µM (PASK; read-out: % inhibition at 10 uM: PASK, 10 μM, Fig 6C median ± standard deviation (n = 2)): 0%
- remaining activity at 10 µM (TRKA; TRKA, 10uM, ATP 100 uM, Data 1, Data 2, read-out: % Enzyme Activity (relative to DMSO controls)): 34.6%
- inhibition at 10 µM (TRKA; read-out: % inhibition at 10 uM: TRKA, 10 μM, Fig 6C median ± standard deviation (n = 2)): 66 ± 1%
- remaining activity at 10 µM (ABL2/ARG; ABL2/ARG, 10uM, ATP 30 uM, Data 1, Data 2, read-out: % Enzyme Activity (relative to DMSO controls)): 63.6%
- inhibition at 10 µM (ABL2/ARG; read-out: % inhibition at 10 uM: ABL2, 10 μM, Fig 6C median ± standard deviation (n = 2)): 32 ± 7%
- remaining activity at 10 µM (FYN; FYN, 10uM, ATP 30 uM, Data 1, Data 2, read-out: % Enzyme Activity (relative to DMSO controls)): 31.4%
- inhibition at 10 µM (FYN; read-out: % inhibition at 10 uM: FYN, 10 μM, Fig 6C median ± standard deviation (n = 2)): 69%
- remaining activity at 10 µM (YES/YES1; YES/YES1, 10uM, ATP 50 uM, Data 1, Data 2, read-out: % Enzyme Activity (relative to DMSO controls)): 92%
- inhibition at 10 µM (YES/YES1; read-out: % inhibition at 10 uM: YES, 10 μM, Fig 6C median ± standard deviation (n = 2)): 9 ± 1%
- remaining activity at 10 µM (DDR1; DDR1, 10uM, ATP 100 uM, Data 1, Data 2, read-out: % Enzyme Activity (relative to DMSO controls)): 20.1%
- inhibition at 10 µM (DDR1; read-out: % inhibition at 10 uM: DDR1, 10 μM, Fig 6C median ± standard deviation (n = 2)): 81%
- remaining activity at 10 µM (LYN B; LYN B, 10uM, ATP 20 uM, Data 1, Data 2, read-out: % Enzyme Activity (relative to DMSO controls)): 100%
- inhibition at 10 µM (LYN B; read-out: % inhibition at 10 uM: LYN B, 10 μM, Fig 6C median ± standard deviation (n = 2)): -1 ± 1%
- remaining activity at 10 µM (PDK4/PDKH4; PDK4/PDKH4, 10uM, ATP 30 uM, Data 1, Data 2, read-out: % Enzyme Activity (relative to DMSO controls)): 66.3%
- inhibition at 10 µM (PDK4/PDKH4; read-out: % inhibition at 10 uM: PDK4, 10 μM, Fig 6C median ± standard deviation (n = 2)): 33 ± 1%
- remaining activity at 10 µM (BLK; BLK, 10uM, ATP 10 uM, Data 1, Data 2, read-out: % Enzyme Activity (relative to DMSO controls)): 15.3%
- inhibition at 10 µM (BLK; read-out: % inhibition at 10 uM: BLK, 10 μM, Fig 6C median ± standard deviation (n = 2)): 85 ± 1%
- remaining activity at 10 µM (c-Src; c-Src, 10uM, ATP 15 uM, Data 1, Data 2, read-out: % Enzyme Activity (relative to DMSO controls)): 86.2%
- inhibition at 10 µM (c-Src; read-out: % inhibition at 10 uM: SRC, 10 μM, Fig 6C median ± standard deviation (n = 2)): 14 ± 1%
- remaining activity at 10 µM (PDK2/PDHK2; PDK2/PDHK2, 10uM, ATP 15 uM, Data 1, Data 2, read-out: % Enzyme Activity (relative to DMSO controls)): 42.8%
- inhibition at 10 µM (PDK2/PDHK2; read-out: % inhibition at 10 uM: PDK2, 10 μM, Fig 6C median ± standard deviation (n = 2)): 50 ± 10%
- remaining activity at 10 µM (FGR; FGR, 10uM, ATP 50 uM, Data 1, Data 2, read-out: % Enzyme Activity (relative to DMSO controls)): 26.1%
- inhibition at 10 µM (FGR; read-out: % inhibition at 10 uM: FGR, 10 μM, Fig 6C median ± standard deviation (n = 2)): 71 ± 4%
- remaining activity at 10 µM (LCK; LCK, 10uM, ATP 15 uM, Data 1, Data 2, read-out: % Enzyme Activity (relative to DMSO controls)): 61.4%
- inhibition at 10 µM (LCK; read-out: % inhibition at 10 uM: LCK, 10 μM, Fig 6C median ± standard deviation (n = 2)): 36 ± 4%
- remaining activity at 10 µM (ABL1; ABL1, 10uM, ATP 40 uM, Data 1, Data 2, read-out: % Enzyme Activity (relative to DMSO controls)): 80%
- inhibition at 10 µM (ABL1; read-out: % inhibition at 10 uM: ABL1, 10 μM, Fig 6C median ± standard deviation (n = 2)): 19 ± 2%
SMILES: CCc1cc(-c2[nH]nc(C)c2-c2ccc3c(c2)OCCO3)c(O)cc1O [CCT018159]
- pActivity, LTK (LTK): 5.6
- pActivity, PIM1 (PIM1): 5.8
- pActivity, MET (MET): 5.6
- pActivity, HSP90AB1 (HSP90AB1): 6.55
